These results are taken from patent US8212112B2, “Gene participating in low temperature germinability in rice and utilization of the same” (Hokuren Federation of Agricultural Cooperatives, priority 2007, dated 2012).

One test has as its system qLTG-3-1 gene. The test is described as follows: qLTG-3-1 gene expression by Northern blot and RT-PCR analysis. Set-up: species or system rice (O. sativa). To be noted: ABA, NaCl (250 mM), mannitol (500 mM). How it is done: To carry out an analysis of gene expression, the total RNA was extracted from various organs of rice using RNAiso (TAKARA). The total RNA (0.5 μg) was reverse-transcripted with Rever Tra Ace (TOYOBO) having an Oligo(dT)20 primer, in accordance with the manufacturing guidelines. The PCR reaction was carried out using KOD-plus (TOYOBO). Each PCR reaction (10 μL) included 0.5 μL of cDNA template that had been diluted 5-fold. The specificity of each primer for the target gene was confirmed by PCR product sequencing. For the purpose of Northern blotting analysis, the total RNA (4 μg/sample) was isolated on 2.0% (w/v) agarose-modified formaldehyde gel containing 40 mM MOPS (pH 7.0), 10 mM Na-acetate, 1 mM EDTA and 2% (v/v) formaldehyde.
The RNA was transferred with 20×SSC to a positively charged nylon membrane (Roche Diagnostics). Hybridization and signal detection were carried out by, respectively, a DIG system and CDP-star (Roche Diagnostics). The PCR fragments from the primers 13-5U and 13-5L were used as the probes for Northern blot analysis. The primers and amplification conditions for RT-PCR analysis are shown subsequently in Table 5.
In this example, the expression of the qLTG-3-1 gene was studied. Using RNAiso (TAKARA), the total RNA was extracted from each organ of rice and treated with DNaseI (TAKARA). For Northern blot analysis, the total RNA (4 μg/sample) was separated on 2.0% (w/v) agarose-modified formaldehyde gel containing 40 mM of MOPS (pH 7.0), 10 mM of sodium acetate and 2% (v/v) formaldehyde.
The RNA was blotted with 20×SSC to a positively charged nylon membrane (Roche Diagnostics). Hybridization and signal detection were carried out with a DIG system and CDP-Star (Roche Diagnostics) according to the manufacturing guidelines. The PCR fragments obtained from the primers 13-5U and 13-5L were used as the probes for Northern blot analysis (Table 5).
In this example, the association between qLTG-3-1 expression and seed germination was examined. […]

The test system of test [1] is rice seeds (Hayamasari, NILHYqLTG-3-1, Italica Livorno). The test is described as follows: germination tests under stress conditions (ABA, GA, NaCl, mannitol, temperature). Set-up: species or system rice (O. sativa). The conditions noted are these: for germination response at low NaCl / mannitol concentrations: concentrations lower than 250 mM mannitol and 150 mM NaCl. The procedure:
To study the germinability under difference stress conditions, germination tests were carried out according to the method reported by Fujino et al. (2004). For low-temperature stress, seeds were placed on Petri dishes which were then loaded into an incubator. Solutions of plant hormones (ABA and GA), NaCl and mannitol at different concentrations were added to the Petri dishes which were then placed in an incubator. […] (A) is the germination at the optimal temperature of 25° C., (B) is the germination at 13° C., (C) is the sensitivity to NaCl (300 mM), (D) is the sensitivity to mannitol (500 mM), and (E) is the sensitivity to ABA ([…]). Examples of […]-3-1 (closed triangles), and Italica Livorno (open circles) are shown. The numerical values represent the mean±standard deviation (SD) for triplicates. […] In (A), the seeds were incubated in water at 25° C., 15° C., 13° C. and 10° C. In (B), GA (100, 200, 500 μM) was added at 15° C.; in (C), ABA ([…]) was added at 25° C.; in (D), NaCl (150, 250, 300 mM) was added; and in (E), mannitol (250, 500, 600 mM) was added, following which incubation was carried out. The open circles indicate controls. The low concentrations to high concentrations are indicated by, in order, open circles, triangles and squares. […] The open and closed symbols represent, respectively, the presence and absence of […]-3-1 and Italica Livorno are represented by, respectively, circles, triangles, and squares. […] Germination tests were carried out by the method reported by Fujino et al. (2004). For the low temperature stress, seeds on a Petri dish were placed in an incubator. Solutions of plant hormone (ABA and GA) and mannitol at different concentrations were added to the Petri dishes at this time before placing the dishes in the incubator.

As to `CC1=CC(=O)CC(C)(C)C1(O)/C=C/C(C)=C\C(=O)O` (stereo not shown) [ABA], the “qLTG-3-1 expression pattern in embryos under stress treatment” value (from here on “qLTG-3-1 expression pattern in embryos”) in the test with qLTG-3-1 gene is “delay and suppression of qLTG-3-1 expression”. Further, the “germination response in ABA treatment” value in test [1] (ABA added at 25° C.) is recorded as “a delay in germination was observed in both parents”. In the case of `C=C1C[C@]23C[C@@]1(O)CC[C@H]2[C@@]12C=C[C@H](O)[C@@](C)(C(=O)O1)[C@H]2[C@@H]3C(=O)O` [GA], in test [1] (15° C., Hayamasari, NILHYqLTG-3-1 and Italica Livorno), the “effect of exogenous GA on seed germination” value is on record as “did not promote seed germination in any of the genotypes”. In the case of `OC[C@@H](O)[C@@H](O)[C@H](O)[C@H](O)CO` [mannitol], in the test with qLTG-3-1 gene, the “qLTG-3-1 expression pattern in embryos” value was “delay and suppression of qLTG-3-1 expression”. The “germination response at low NaCl / mannitol concentrations” value in test [1] was “all the varieties showed a delay in germination”. Turning to `[Cl-].[Na+]` [NaCl], the “qLTG-3-1 expression pattern in embryos” value in the test with qLTG-3-1 gene is “delay and suppression of qLTG-3-1 expression”. The “germination response at low NaCl / mannitol concentrations” value in test [1] is listed as “all the varieties showed a delay in germination”.
